{"source": "patent US9497960B2", "about": "“Biocide compositions comprising alkoxylation products of isoamyl alcohol derivatives” (COGNIS IP MANAGEMENT GMBH, priority 2010, dated 2016)", "key": {"[1]": {"assay": "Foam potential / foam height of aqueous adjuvant solutions", "format": "physicochemical", "conditions": "0.1% aqueous solution/dispersion; Cipac MT 47, Cipac water D", "procedure": "(§1) Definition of “quasistatic”: Static or equilibrium surface tension at an air-liquid interface can be determined by the Du Noüy ring method, the Wilhelmy plate etc. […] To avoid such problems, a dynamic method is used but the frequency is reduced to 0.1 Hz or less, thus close enough to equilibrium conditions. Dynamic surface tension is determined at a frequency of 10 Hz. It was determined at 20° C. with the Krüss Bubble Pressure Tensiometer BP2, available from Krüss GmbH, Borsteler Chaussee 85-99, 22453 Hamburg, Germany. Foam potential was tested with SITA foam tester R-2000, available from SITA Messtechnik GmbH, Gostritzer Str. 61-63, 01217 Dresden, Germany. The results are compiled in Tables 1 and 2"}, "[2]": {"tested_on": "barley powdery mildew (BPM)", "assay": "Protective trial with Amistar (Azoxystrobin SC 250) against barley powdery mildew", "format": "in vivo, Blumeria graminis f. sp. hordei on barley", "conditions": "5 g/ha azoxystrobin, adjuvant 50 ml/ha, leaves cut 5 h after application, incubation 10 d", "procedure": "Opus SC125 (BASF) was tested to control barley powdery mildew (BPM) in a curative greenhouse trial, Azoxystrobin SC 250 in a protective trial. In each case, barley was cultivated in a substrate “Frustorder Erde” for three weeks. Each treatment was replicated 14 times. The adjuvant dose rate in each treatment was 50 ml/ha. 5 h after application with the equivalent of 5 g/ha azoxystrobin, leaf segments were cut off at a length of 7 cm from the stem. The leaves of the F and F-1 leaf were placed on agar. After the inoculation, the incubation time was 10 d. The assessment of the infection rate was conducted by a trained biologist."}, "[3]": {"tested_on": "barley powdery mildew (Blumeria graminis f. sp. hordei)", "assay": "Curative greenhouse trial with Opus against barley powdery mildew", "format": "in vivo, Blumeria graminis f. sp. hordei on barley", "conditions": "for Infection rate of barley powdery mildew after treatment with fungicides, Opus: curative, Opus 10 g/ha, adjuvant 50 ml/ha, inoculation 2 days prior to application, assessment 14 DAT, barley leaf segments; for Sum of infection rates: sum of Opus (curative) and Amistar (protective) trials", "procedure": "Opus SC125 (BASF) was tested to control barley powdery mildew (BPM) in a curative greenhouse trial, Azoxystrobin SC 250 in a protective trial. In each case, barley was cultivated in a substrate “Frustorder Erde” for three weeks. Each treatment was replicated 14 times. The adjuvant dose rate in each treatment was 50 ml/ha. Inoculation of the leaves with powdery mildew (Blumeria graminis f. sp. hordei) was done 2 days prior to application to test Opus' curative action. From the stem, leaf segments were cut off with a length of 10 cm using the flag leaf (F) and 2nd leaf (F-1). Altogether, the leaves of each were placed on benzimidazol agar i.e. 0.5% Agar with 40 ppm benzimidazol. The concentration of Opus for the leaf application was 10 g/ha. Assessment 14 days after treatment (14 DAT) of the efficacy against powdery mildew was done by counting the mildew pustules per leaf on a length of 7 cm. The assessment of the infection rate was conducted by a trained biologist."}, "[4]": {"assay": "Dynamic and quasistatic surface tension, Krüss Bubble Pressure Tensiometer BP2", "format": "physicochemical", "conditions": "0.1% in demineralised water, Kruess BP 2, 20° C.; for Surface tension at 10 Hz: dynamic; for Surface tension at 0.1 Hz: quasistatic", "procedure": "as §1"}}, "data": [{"compound": "Isoamylguerbet + 3PO + 3EO [Example 1]", "values": [{"measurement": "Foam hight after 1 m", "setting": "[1]", "value": 1, "unit": "mL"}, {"measurement": "Foam hight after 5 m", "setting": "[1]", "value": 0, "unit": "mL"}, {"measurement": "Infection rate of barley powdery mildew after treatment with fungicides, Amistar", "setting": "[2]", "value": 0, "unit": "%"}, {"measurement": "Infection rate of barley powdery mildew after treatment with fungicides, Opus", "setting": "[3]", "value": 3, "unit": "%"}, {"measurement": "Sum of infection rates", "setting": "[3]", "value": 3, "unit": "%"}, {"measurement": "Surface tension at 10 Hz", "setting": "[4]", "value": 45, "unit": "mN/m"}, {"measurement": "Surface tension at 0.1 Hz", "setting": "[4]", "value": 28, "unit": "mN/m"}]}, {"compound": "Isoamylguerbet + 3EO + 3PO [Example 2]", "values": [{"measurement": "Foam hight after 1 m", "setting": "[1]", "value": 0, "unit": "mL"}, {"measurement": "Foam hight after 5 m", "setting": "[1]", "value": 0, "unit": "mL"}, {"measurement": "Infection rate of barley powdery mildew after treatment with fungicides, Amistar", "setting": "[2]", "value": 0, "unit": "%"}, {"measurement": "Infection rate of barley powdery mildew after treatment with fungicides, Opus", "setting": "[3]", "value": 8, "unit": "%"}, {"measurement": "Sum of infection rates", "setting": "[3]", "value": 8, "unit": "%"}, {"measurement": "Surface tension at 10 Hz", "setting": "[4]", "value": 45, "unit": "mN/m"}, {"measurement": "Surface tension at 0.1 Hz", "setting": "[4]", "value": 32, "unit": "mN/m"}]}, {"compound": "CC(C)CCC(COCCOCCOCCOCCOCCO)C(C)C", "note": "(centres unmarked) [Example 4, Isoamylguerbet + 5EO]", "values": [{"measurement": "Foam hight after 1 m", "setting": "[1]", "value": 0, "unit": "mL"}, {"measurement": "Foam hight after 5 m", "setting": "[1]", "value": 0, "unit": "mL"}, {"measurement": "Infection rate of barley powdery mildew after treatment with fungicides, Amistar", "setting": "[2]", "value": 3, "unit": "%"}, {"measurement": "Infection rate of barley powdery mildew after treatment with fungicides, Opus", "setting": "[3]", "value": 12, "unit": "%"}, {"measurement": "Sum of infection rates", "setting": "[3]", "value": 15, "unit": "%"}, {"measurement": "Surface tension at 10 Hz", "setting": "[4]", "value": 39, "unit": "mN/m"}, {"measurement": "Surface tension at 0.1 Hz", "setting": "[4]", "value": 30, "unit": "mN/m"}]}, {"compound": "CC(C)CCC(COCCOCCOCCOCCOCCOCCOCCOCCOCCOCCO)C(C)C", "note": "(centres unmarked) [Example 3, Isoamylguerbet + 10EO]", "values": [{"measurement": "Foam hight after 1 m", "setting": "[1]", "value": 3, "unit": "mL"}, {"measurement": "Foam hight after 5 m", "setting": "[1]", "value": 2, "unit": "mL"}, {"measurement": "Infection rate of barley powdery mildew after treatment with fungicides, Amistar", "setting": "[2]", "value": 5, "unit": "%"}, {"measurement": "Infection rate of barley powdery mildew after treatment with fungicides, Opus", "setting": "[3]", "value": 7, "unit": "%"}, {"measurement": "Sum of infection rates", "setting": "[3]", "value": 12, "unit": "%"}, {"measurement": "Surface tension at 10 Hz", "setting": "[4]", "value": 46, "unit": "mN/m"}, {"measurement": "Surface tension at 0.1 Hz", "setting": "[4]", "value": 36, "unit": "mN/m"}]}, {"compound": "CC(C)CCC(COCCOCCOCCO)C(C)C", "note": "(centres unmarked) [Example 5, Isoamylguerbet + 3EO]", "values": [{"measurement": "Foam hight after 1 m", "setting": "[1]", "value": 0, "unit": "mL"}, {"measurement": "Foam hight after 5 m", "setting": "[1]", "value": 0, "unit": "mL"}, {"measurement": "Infection rate of barley powdery mildew after treatment with fungicides, Amistar", "setting": "[2]", "value": 4, "unit": "%"}, {"measurement": "Infection rate of barley powdery mildew after treatment with fungicides, Opus", "setting": "[3]", "value": 20, "unit": "%"}, {"measurement": "Sum of infection rates", "setting": "[3]", "value": 24, "unit": "%"}, {"measurement": "Surface tension at 10 Hz", "setting": "[4]", "value": 42, "unit": "mN/m"}, {"measurement": "Surface tension at 0.1 Hz", "setting": "[4]", "value": 30, "unit": "mN/m"}]}]}
